For series [1] the following is noted: cited from earlier work.
Series [2] in a line: Perivascular counting of IgG signal in brain sections after intracisternal infusion with or without mannitol (ex vivo fluorescence, ImageJ). Details: species or system rat. The protocol:
Female Sprague-Dawley rats (180-240 g) were anesthetized to a surgical plane of anesthesia using 1.3 g/kg intraperitoneal urethane (boostered to effect), tracheotomized, and placed in a stereotaxic frame (Stoelting). Atropine (0.1 mg/kg every two hours) was given subcutaneously to reduce fluid secretion in lungs. An incision was made on the back of the neck and the muscles were dissected from the occipital bone to expose the atlanto-occipital membrane, which was retracted to reveal the dura overlying the cisterna magna. A custom cannula (˜1 cm long) made of 33 GA polyether ether ketone (PEEK, Plastics One) was connected to a Hamilton syringe controlled by an infusion pump (Quintessential Stereotaxic Injector, Stoelting) via polyethylene-10 tubing (Solomon Scientific). The tubing was prefilled with infusate (i.e., antibody solution with or without mannitol), the dura punctured with a dental needle, and the PEEK cannula immediately inserted at a 60-degree angle from the horizontal, advanced 1 mm into the cisterna magna, and sealed with cyanoacrylate.
For ex vivo fluorescence, AlexaFluor488 goat-anti-rabbit IgG in PBS (as provided) or in PBS with mannitol (described below) was infused at 1.6 uL/min for 50 minutes (80 uL total), a rate that is expected to be physiological as it is approximately half the CSF production rate and has been shown not to increase intracranial pressure in rats (Yang et al. J Trans Med 2013). The abdominal aorta was then cannulated and thirty minutes after the infusion completed the animal was perfused with ˜50 mL ice cold 0.01 M PBS followed by ˜450 mL 4% paraformaldehyde in 0.1 M phosphate buffer following a blood draw. The brain was removed and placed in 4% paraformaldehyde or phosphate buffered saline overnight, then sliced into 100 micrometer sections using a vibratome. Sections were imaged on an Olympus MVX10 using an Orca-flash 2.8 CMOS camera (Hamamatsu), a Lumen Dynamics X-Cite 120Q illuminator and an appropriate filter set (Chroma, U-M49002XL).
(§1) AlexaFluor 488 goat-anti-rabbit IgG was prepared in 0.27 M or 0.75 M mannitol in 0.01M PBS using 0.5 mL Amicon Ultra 100 kDa molecular weight cutoff centrifugal filters for buffer exchange. IgG was added to the filter and washed/spun from 0.5 mL three times with 0.27 M or 0.75 M mannitol solution (osmolality 507 mOsm/kg and 988 mOsm/kg, respectively); each spin was 10 minutes at 14,000 g. Recovery spin was 2 minutes at 1,000 g. Concentration of IgG protein (absorbance at 280 nm) was measured using a NanoDrop 2000 (Thermo Fisher), and after concentration/buffer exchange in mannitol the protein concentration was diluted to the same concentration so animals received identical amounts of IgG whether administered in provided buffer or buffer with mannitol.
To quantify perivascular signal between treatments, images were opened in ImageJ/Fiji, thresholded to eliminate background, and the Analyze Particles command was used to count and outline ‘particles’, or perivascular signal, with no restrictions on size or circularity, as well as providing additional information such as circularity, area, and average size.

Series [3] in a line: Confocal imaging of cerebral internal carotid artery: IgG access to smooth muscle basement membrane. The class given is in vivo, rat. The protocol:
as §1

Series [4] is described as follows: Fluorescence imaging of spinal cord slices after intrathecal infusion of IgG with or without mannitol. Format: in vivo, rat. The protocol: FIG. 8 (A-C). […] The spinal cord has a simple structure—an outer spinal white matter that has few blood vessels and an inner spinal gray matter which has a dense network of blood vessels.
Female Sprague-Dawley rats (180-240 g) were anesthetized to a surgical plane of anesthesia using 1.3 g/kg intraperitoneal urethane (boostered to effect), tracheotomized, and placed in a stereotaxic frame (Stoelting). Atropine (0.1 mg/kg every two hours) was given subcutaneously to reduce fluid secretion in lungs. […]
For ex vivo fluorescence, AlexaFluor488 goat-anti-rabbit IgG in PBS (as provided) or in PBS with mannitol (described below) was infused at 1.6 uL/min for 50 minutes (80 uL total), a rate that is expected to be physiological as it is approximately half the CSF production rate and has been shown not to increase intracranial pressure in rats (Yang et al. J Trans Med 2013). […]
AlexaFluor 488 goat-anti-rabbit IgG was prepared in 0.27 M or 0.75 M mannitol in 0.01M PBS using 0.5 mL Amicon Ultra 100 kDa molecular weight cutoff centrifugal filters for buffer exchange. […] Concentration of IgG protein (absorbance at 280 nm) was measured using a NanoDrop 2000 (Thermo Fisher), and after concentration/buffer exchange in mannitol the protein concentration was diluted to the same concentration so animals received identical amounts of IgG whether administered in provided buffer or buffer with mannitol.

Series [5] in a line: Osmolality of mannitol infusion solutions. The class given is physicochemical. The protocol:
as §1
We have measured the osmolality of both the 0.27 M mannitol (507-564 mOsm/kg) and 0.75 M mannitol (988-1126 mOsm/kg) solutions.

For series [6] the following is noted: hypertonic solutions, animals (Speck et al. 1988); cited from earlier work.

We go through seven compounds from US10123969B2, “Osmotic enhancement of drug/therapeutic delivery to the brain following infusion or injection into the cerebrospinal fluid” (Wisconsin Alumni Research Foundation, priority 2015, dated 2018).

Converted amounts (≈) assume the structure as drawn. “And” between values parts separate entries of the source, which are not always exact repeats. Equal values may be shown once. “Also recorded” adds a separate entry of the source. Read-outs that look alike come from different tables or passages of the source.

Regarding `C[C@H](N)C(=O)O` [L-Alanine], in series [1] (at 25 C (Needham et al. 1971)), the solubility was 1670 mM (≈ 149 mg/mL).

For the compound `N[C@@H](Cc1ccccc1)C(=O)O` [L-Phenylalanine], the solubility in series [1] (at 25 C (Needham et al. 1971)) is 208 mM (≈ 34.4 mg/mL).

For the compound `CC(C)[C@H](N)C(=O)O` [L-Valine], in series [1] (at 25 C (Needham et al. 1971)), the solubility is 514 mM (≈ 60.2 mg/mL).

For `OC[C@@H](O)[C@@H](O[C@H]1O[C@H](CO)[C@@H](O)[C@H](O)[C@H]1O)[C@H](O)[C@@H](O)CO` [Maltitol], the solubility in series [1] (at 37 C (body temperature)) was 5810 mM (≈ 2000 mg/mL).

As for `OC[C@@H](O)[C@@H](O)[C@H](O)[C@@H](O)CO` [Sorbitol], the solubility in water entry in series [1] (Merck Index) is listed as “up to 83%”.

With `O=C[C@H](O)[C@@H](O)[C@H](O)CO` [Xylose], the solubility in series [1] (Merck Index, temperature not given) is 8320 mM (≈ 1250 mg/mL); in series [1] (at 25 C (Gabas et al. 1988)), 3660 mM (≈ 549 mg/mL).

On to `OC[C@@H](O)[C@@H](O)[C@H](O)[C@H](O)CO` [mannitol], for which, in series [2] (0.27 M mannitol co-infusion vs IgG alone (controls)), the “perivascular access of IgG (in words)” value is “improved access; also recorded: slight increase”. The “brain distribution of IgG via the perivascular spaces (in words)” value in series [2] (0.75 M mannitol co-infused with labeled 150 kDa IgG) is recorded as “dramatically greater brain distribution”. The “number of vessels accessed by IgG (in words)” value in series [2] (0.75 M mannitol co-infusion vs 0.27 M mannitol co-infusion or IgG alone) is given as “significantly increased”. Further, in series [2] (IgG with 0.75 M mannitol co-infusion vs single domain antibody without mannitol), the “number of vessels with perivascular signal (in words)” value is “significantly higher number of vessels”. In addition, in series [2] (mannitol between 0.27 M and 0.75 M), the “dose dependence of perivascular access of IgG” value is on record as “dose-dependent manner; also recorded: dose-dependent increase”. Also, the “IgG access to the basement membrane of the smooth muscle layer (in words)” value in series [3] (0.27 M mannitol co-infusion vs IgG without mannitol) is given as “modestly increased; also recorded: no visible improvement”; in series [3] (0.75 M mannitol co-infusion vs IgG without mannitol) it was “strikingly increased; also recorded: markedly improved; also recorded: noticeably increased”. Besides, the “number of IgG perivascular profiles in spinal gray (in words)” value in series [4] (0.27 M mannitol co-infusion vs IgG alone) is listed as “slight increase”. The “number of perivascular spaces with IgG signal in spinal cord (in words)” value in series [4] (0.75 M mannitol co-infusion) was “striking increase”. Also, the osmolality in series [5] (0.27 M mannitol solution) is 507 mOsm/kg and 507-564 mOsm/kg; in series [5] (0.75 M mannitol solution), 988 mOsm/kg and 988-1126 mOsm/kg. The solubility in series [1] (at 40 C (just above body temperature)) was 2000 mM (≈ 364 mg/mL); in series [1] (at 40 C (just above body temperature), listed as Mannitol), 1900 to 1940 mM. Moreover, the “tolerability of intrathecal infusion” value in series [6] is “well tolerated”.
